{"source": "PubChem BioAssay AID248", "about": "(DTP/NCI, 2004)", "tested_on": "L1210 leukemia ip in BDF1 mice, survival T/C", "experiment": "NCI In Vivo Anticancer Drug Screen. Data for tumor model L1210 Leukemia (intraperitoneal) in B6D2F1 (BDF1) mice", "conditions": "endpoint: mean survival time, higher = longer survival", "method_in_brief": "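Each compound was tested against a transplantable tumor grown in mice. The endpoint was survival, with treated animals benchmarked against vehicle controls as a simple ratio.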", "key": {"[1]": {"conditions": "dose: 100.0 mg/kg/injection, schedule: Q04DX003 (ip), vehicle: saline with Tween-80"}, "[2]": {"conditions": "dose: 200.0 mg/kg/injection, schedule: Q04DX003 (ip), vehicle: saline with Tween-80"}, "[3]": {"conditions": "dose: 100.0 mg/kg/injection, schedule: Q04DX003 (ip), vehicle: Klucel (hydroxypropylcellulose) (HPC)"}, "[4]": {"conditions": "dose: 200.0 mg/kg/injection, schedule: Q04DX003 (ip), vehicle: Klucel (hydroxypropylcellulose) (HPC)"}, "[5]": {"conditions": "dose: 400.0 mg/kg/injection, schedule: Q04DX003 (ip), vehicle: Klucel (hydroxypropylcellulose) (HPC)"}, "[6]": {"conditions": "dose: 400.0 mg/kg/injection, schedule: Q04DX003 (ip), vehicle: saline with Tween-80"}, "[7]": {"conditions": "dose: 100.0 mg/kg/injection, schedule: Q01DX001 (ip), vehicle: saline"}, "[8]": {"conditions": "dose: 200.0 mg/kg/injection, schedule: Q01DX001 (ip), vehicle: saline"}, "[9]": {"conditions": "dose: 400.0 mg/kg/injection, schedule: Q01DX001 (ip), vehicle: saline"}}, "note": "Where “and” joins values, the source holds several entries; their conditions need not be identical. Equal values may be shown once. Toxic doses and inconclusive results are not listed."}
{"molecule": "COC1OC2COCOC2C(OS(=O)(=O)c2ccc(C)cc2)C1OS(=O)(=O)c1ccc(C)cc1", "note": "(stereo not given)", "values": [{"measurement": "T/C", "setting": "dose: 100.0 mg/kg/injection, schedule: Q04DX002 (ip), vehicle: Klucel (hydroxypropylcellulose) (HPC)", "value": "100 % of control"}, {"measurement": "T/C", "setting": "[1]", "value": "89 % of control"}, {"measurement": "T/C", "setting": "dose: 200.0 mg/kg/injection, schedule: Q04DX002 (ip), vehicle: Klucel (hydroxypropylcellulose) (HPC)", "value": "95 % of control"}, {"measurement": "T/C", "setting": "[2]", "value": "86 % of control"}, {"measurement": "T/C", "setting": "dose: 400.0 mg/kg/injection, schedule: Q04DX002 (ip), vehicle: Klucel (hydroxypropylcellulose) (HPC)", "value": "92 % of control"}]}
{"molecule": "O=C(O)CNS(=O)(=O)CCN1C(=O)c2ccccc2C1=O", "values": [{"measurement": "T/C", "setting": "[3]", "value": "96 % of control"}, {"measurement": "T/C", "setting": "[4]", "value": "92 % of control"}, {"measurement": "T/C", "setting": "[5]", "value": "96 % of control"}]}
{"molecule": "ClCC1COC(CCc2ccccc2)O1", "note": "(stereo not given)", "values": [{"measurement": "T/C", "setting": "dose: 222.0 mg/kg/injection, schedule: Q01DX Z (ip), vehicle: saline", "value": "95 % of control"}, {"measurement": "T/C", "setting": "dose: 333.0 mg/kg/injection, schedule: Q01DX Z (ip), vehicle: saline", "value": "95 % of control"}, {"measurement": "T/C", "setting": "dose: 500.0 mg/kg/injection, schedule: Q01DX Z (ip), vehicle: saline", "value": "113 % of control"}]}
{"molecule": "Cc1ccc(Cl)cc1N=Cc1ccccc1O", "values": [{"measurement": "T/C", "setting": "[1]", "value": "94 % of control"}, {"measurement": "T/C", "setting": "[6]", "value": "98 % of control"}]}
{"molecule": "O=C(O)C(O)C(O)C(O)CO.[Zn+2]", "note": "(stereo not given)", "values": [{"measurement": "T/C", "setting": "dose: 6.25 mg/kg/injection, schedule: Q01DX009 (ip), vehicle: saline with Tween-80", "value": "95 % of control"}, {"measurement": "T/C", "setting": "dose: 6.25 mg/kg/injection, schedule: Q04DX002 (ip), vehicle: saline with Tween-80", "value": "124 % of control"}, {"measurement": "T/C", "setting": "dose: 12.5 mg/kg/injection, schedule: Q01DX009 (ip), vehicle: saline with Tween-80", "value": "105 % of control and 100 % of control"}, {"measurement": "T/C", "setting": "dose: 12.5 mg/kg/injection, schedule: Q04DX002 (ip), vehicle: saline with Tween-80", "value": "109 % of control"}, {"measurement": "T/C", "setting": "dose: 25.0 mg/kg/injection, schedule: Q01DX009 (ip), vehicle: saline with Tween-80", "value": "91 % of control"}, {"measurement": "T/C", "setting": "dose: 25.0 mg/kg/injection, schedule: Q04DX002 (ip), vehicle: saline with Tween-80", "value": "95 % of control"}, {"measurement": "T/C", "setting": "dose: 50.0 mg/kg/injection, schedule: Q01DX009 (ip), vehicle: saline with Tween-80", "value": "91 % of control"}]}
{"molecule": "CC1OC2COC(C)OC2C(C(O)COC(c2ccccc2)(c2ccccc2)c2ccccc2)O1", "note": "(stereo not given)", "values": [{"measurement": "T/C", "setting": "dose: 100.0 mg/kg/injection, schedule: Q01DX009 (ip), vehicle: Klucel (hydroxypropylcellulose) (HPC)", "value": "93 % of control"}, {"measurement": "T/C", "setting": "[3]", "value": "98 % of control"}, {"measurement": "T/C", "setting": "dose: 200.0 mg/kg/injection, schedule: Q01DX009 (ip), vehicle: Klucel (hydroxypropylcellulose) (HPC)", "value": "95 % of control"}, {"measurement": "T/C", "setting": "[4]", "value": "97 % of control"}, {"measurement": "T/C", "setting": "dose: 400.0 mg/kg/injection, schedule: Q01DX009 (ip), vehicle: Klucel (hydroxypropylcellulose) (HPC)", "value": "101 % of control"}, {"measurement": "T/C", "setting": "[5]", "value": "95 % of control"}]}
{"molecule": "Cc1cccc(C)c1NC(N)=S", "values": [{"measurement": "T/C", "setting": "[3]", "value": "98 % of control"}, {"measurement": "T/C", "setting": "[4]", "value": "90 % of control"}]}
{"molecule": "COc1ccc(Cc2ccc(OC)cc2)cc1", "values": [{"measurement": "T/C", "setting": "dose: 50.0 mg/kg/injection, schedule: Q01DX001 (ip), vehicle: saline", "value": "96 % of control"}, {"measurement": "T/C", "setting": "[7]", "value": "96 % of control"}, {"measurement": "T/C", "setting": "[8]", "value": "96 % of control"}, {"measurement": "T/C", "setting": "[9]", "value": "90 % of control"}]}
{"molecule": "O=C(O)c1[nH]c2c(=O)[nH]c(=O)[nH]c2c1Br", "values": [{"measurement": "T/C", "setting": "[7]", "value": "102 % of control"}, {"measurement": "T/C", "setting": "[8]", "value": "100 % of control"}, {"measurement": "T/C", "setting": "[9]", "value": "100 % of control"}]}
{"molecule": "CN(C)C(=O)c1cc(NC(=O)c2ccc(C(=O)Nc3cc(C(=O)N(C)C)cc(C4=NCCN4)c3)cc2)cc(C2=NCCN2)c1", "values": [{"measurement": "T/C", "setting": "dose: 7.5 mg/kg/injection, schedule: Q01DX015 (ip), vehicle: methylcellulose (MC)", "value": "98 % of control"}, {"measurement": "T/C", "setting": "dose: 15.0 mg/kg/injection, schedule: Q01DX015 (ip), vehicle: methylcellulose (MC)", "value": "98 % of control and 108 % of control"}, {"measurement": "T/C", "setting": "dose: 60.0 mg/kg/injection, schedule: Q01DX015 (ip), vehicle: methylcellulose (MC)", "value": "98 % of control"}]}
{"molecule": "NC(CSC(c1ccccc1)(c1ccccc1)c1ccc(Br)cc1)C(=O)O", "note": "(stereo not given)", "values": [{"measurement": "T/C", "setting": "dose: 3.13 mg/kg/injection, schedule: Q01DX009 (ip), vehicle: saline", "value": "155 % of control"}, {"measurement": "T/C", "setting": "dose: 6.25 mg/kg/injection, schedule: Q01DX009 (ip), vehicle: saline", "value": "162 % of control"}, {"measurement": "T/C", "setting": "dose: 12.5 mg/kg/injection, schedule: Q01DX009 (ip), vehicle: saline", "value": "214 % of control"}, {"measurement": "T/C", "setting": "dose: 25.0 mg/kg/injection, schedule: Q01DX009 (ip), vehicle: saline", "value": "111 % of control"}, {"measurement": "T/C", "setting": "dose: 75.0 mg/kg/injection, schedule: Q01DX001 (ip), vehicle: other", "value": "105 % of control"}, {"measurement": "T/C", "setting": "dose: 150.0 mg/kg/injection, schedule: Q01DX001 (ip), vehicle: other", "value": "121 % of control"}]}
{"molecule": "O=C1NC2NC(=O)NC2N1", "note": "(stereo not given)", "values": [{"measurement": "T/C", "setting": "dose: 100.0 mg/kg/injection, schedule: Q01DX009 (ip), vehicle: saline with Tween-80", "value": "98 % of control"}, {"measurement": "T/C", "setting": "[1]", "value": "112 % of control"}, {"measurement": "T/C", "setting": "dose: 200.0 mg/kg/injection, schedule: Q01DX009 (ip), vehicle: saline with Tween-80", "value": "115 % of control"}, {"measurement": "T/C", "setting": "[2]", "value": "98 % of control"}, {"measurement": "T/C", "setting": "dose: 400.0 mg/kg/injection, schedule: Q01DX009 (ip), vehicle: saline with Tween-80", "value": "96 % of control"}, {"measurement": "T/C", "setting": "[6]", "value": "101 % of control"}]}
